# Test results reported in patent US20120095067A1, “PHARMACEUTICAL COMPOSITION CONTAINING CARBOXYLOSARTAN AND A PRODUCTION METHOD THEREFOR” (JIN YANG PHARM. CO., LTD., priority 2009, published 2012).
# What was measured:
# [1] = Dissolution experiment, paddle method, 900 ml medium, 50 rpm; format: physicochemical
# Experimental: By using the prepared Comparative example 1, dissolution experiments was made in a buffer having a pH of 1.2 (prepared by mixing 2.0 g of sodium chloride with 7.0 ml of hydrochloric acid and adding purified water until it totals 1 liter), a buffer having a pH of 4.0 (prepared by mixing 0.05 mol/L acetic acid solution with 0.05 mol/L sodium acetate solution (41:9) and adjusting a pH to 4.0), a buffer having a pH of 6.8 (prepared by mixing 250 ml of 0.2 mol/L potassium dihydrogen phosphate test solution with 118 ml of 0.2 mol/L sodium hydroxide test solution and adding water until it totals 1 liter), and purified water. In this instance, a paddle method was used, an amount of a dissolution medium was 900 ml, and a paddle rotation rate was 50 rpm. Like Comparative example 1, the dissolution of Examples 1-4 in a buffer having a pH of 1.2 was evaluated. Like Example 1, the dissolution of Examples 5-10 in a buffer having a pH of 1.2 was evaluated. Like Comparative example 1, the dissolution of Example 9 in different dissolution media was evaluated.
# [2] = relative to losartan; cited from earlier work
smiles,measurement,setting,value
"CCCCc1nc(Cl)c(C(=O)O)n1Cc1ccc(-c2ccccc2-c2nnn[nH]2)cc1 [losartan carboxylic acid, 2-butyl-4-chloro-1-[(2′-(1H-tetrazol-5-yl)[1,1′-biphenyl]-4-yl)methyl]-1H-imidazole-5-carboxylic acid]",behaviour on contact with purified water or a buffer,[1],gelled
same,half life compared with losartan,[2],longer
